The values below come from PMC7221154, “Cloning and Expression of Cockroach α7 Nicotinic Acetylcholine Receptor Subunit” (Frontiers in Physiology, 2020).

As usually defined, the EC50 is the concentration that produces a half-maximal response.

In assay [1] the target is T1, Pameα7 (Periplaneta americana, UniProt A0A5P8U3L1).
T1 construct: cDNA in pGEM-HEJUEL injected in Xenopus laevis oocytes; homomeric receptor (pentamer by known biology)
T1 sequence (A0A5P8U3L1 42-518): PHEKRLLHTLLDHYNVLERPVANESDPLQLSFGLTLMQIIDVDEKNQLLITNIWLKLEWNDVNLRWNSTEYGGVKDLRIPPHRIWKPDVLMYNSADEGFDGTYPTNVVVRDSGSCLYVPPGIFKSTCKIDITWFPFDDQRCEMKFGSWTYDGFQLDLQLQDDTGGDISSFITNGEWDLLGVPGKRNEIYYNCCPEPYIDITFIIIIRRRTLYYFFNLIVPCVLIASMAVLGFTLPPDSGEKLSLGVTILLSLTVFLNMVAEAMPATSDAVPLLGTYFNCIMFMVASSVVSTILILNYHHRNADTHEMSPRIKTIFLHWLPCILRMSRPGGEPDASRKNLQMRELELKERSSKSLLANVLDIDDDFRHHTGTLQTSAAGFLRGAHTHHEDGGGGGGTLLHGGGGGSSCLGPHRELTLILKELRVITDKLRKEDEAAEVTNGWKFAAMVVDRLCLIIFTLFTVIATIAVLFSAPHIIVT
Description: two-electrode voltage clamp, Xenopus oocytes, agonist currents. To be noted: 10 mM, -80 mV, 0.5 μM atropine, EC50 could not be calculated, unreliable (low currents). Type of assay: cell-based.

Assay [2] concerns the target T1, Pameα7. The description is as above. To be noted: cDNA-injected oocytes without RIC-3, -80 mV, 0.5 μM atropine, 20-22 °C, normalized to 10 mM nicotine, unreliable (native currents at 5 and 10 mM nicotine). Type of assay: cell-based.

As to `CC(=O)OCC[N+](C)(C)C` [acetylcholine], the “two-electrode voltage clamp, Xenopus oocytes, agonist currents” value in assay [1] is “ACh and nicotine induced inward currents”.

`CN1CCC[C@H]1c1cccnc1` [nicotine] returned an EC50 in assay [2] of 790 µM.
